From patent US8124582B2, “Treatment of diabetes” (FibroGen, Inc., priority 2002, dated 2012)

System: PFK-P, PFK-L, enolase-1, GluT-1, lactate dehydrogenase-1, aldolase-1, hexokinase-1
Test: In vivo expression of genes encoding enzymes involved in glucose regulation (microarray, time course)
Parameters: species or system Swiss Webster male mice
Details: mice, 100 mg/kg oral gavage
Protocol: To determine gene induction patterns over time, twenty four Swiss Webster male mice (30-32 g) were obtained from Simonsen, Inc. and treated by oral gavage with a 4 ml/kg volume of either 0.5% carboxymethyl cellulose (CMC; Sigma-Aldrich, St. Louis Mo.) (0 mg/kg/day) or […] compound B (25 mg/ml in 0.5% CMC) (100 mg/kg). At 4, 8, 16, 24, 48, or 72 hours after the final dose, animals were anesthetized with isoflurane. The mice were then sacrificed and tissue samples of kidney, liver, brain, lung, and heart were isolated and stored in RNALATER solution (Ambion) at −80° C.
RNA from tissues obtained from the experiments described above was isolated using the following protocol. A 50 mg section of each organ was diced, 875 μl of RLT buffer (RNEASY kit; Qiagen Inc., Valencia Calif.) was added, and the pieces were homogenized for about 20 seconds using a rotor-stator POLYTRON homogenizer (Kinematica, Inc., Cincinnati Ohio). […] The RNA was eluted into 80 μL of water and quantitated with RIBOGREEN reagent (Molecular Probes, Eugene Oreg.). […] The absorbance at 260 and 280 nm was measured to determine RNA purity and concentration.
Alternatively, tissue samples were diced and homogenized in TRIZOL reagent (Invitrogen Life Technologies, Carlsbad Calif.) using a rotor-stator POLYTRON homogenizer (Kinematica). […] The absorbance at 260 and 280 nm was measured to determine RNA purity and concentration. […]

`O=C(O)CNC(=O)c1nc(Cl)c2ccccc2c1O` [compound B, [(1-Chloro4-hydroxy-isoquinoline-3-carbonyl)-amino]-acetic acid] was tested, and the “expression of genes encoding enzymes involved in glucose regulation” value (kidney, liver, lung, 4-72 hours after dose, FIGS. 2A-2C) was “increased in a coordinated fashion” and the “time after which most mRNA levels returned to control levels” value (time course) was 24 to 48 h.
